{
  "source": "paper PMC11436758",
  "about": "“Computer-aided drug design to generate a unique antibiotic family” (Nature Communications, 2024)",
  "key": {"AcpS": {"molecular_target": "AcpS (Escherichia coli, UniProt P24224)", "sequence (P24224 2-126)": "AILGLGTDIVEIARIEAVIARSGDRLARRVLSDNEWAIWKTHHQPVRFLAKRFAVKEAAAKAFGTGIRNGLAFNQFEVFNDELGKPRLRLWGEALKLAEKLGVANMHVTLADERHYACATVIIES", "assay": "AcpS activity against increasing concentration of CoA with and without DNM0547 (mode of inhibition)", "type": "biochemical", "details": "Suppl Fig 2, [AcpS] 5 nM; for V(+Inhibitor): replicates", "source_text": "AcpS was chosen as a potential new antibiotic target for several important reasons beyond its high level of conservation across bacterial species. […] We undertook a more in-depth characterization of AcpS inhibition using DNM0547 as the test compound for this antibiotic family. The computer-aided drug design strategy used positions DNM compounds in the active site of AcpS. If DNM0547 is binding to the active site of AcpS competitive inhibition against an AcpS substrate would be predicted.\nThe acpS gene was amplified from S. aureus and E. coli genomic DNA and inserted into a pET23b vector using standard recombinant DNA methodology such that the protein product would result in addition of a C-terminal 6x-His tag in frame with the AcpS open reading frames. The DNA sequences inserted in the vector were sequenced and found to be identical to the known E. coli and S. aureus acpS open reading frames. Recombinant His-Tagged AcpS expression was induced by IPTG addition and overnight culture. Cell lysate was obtained by sequential aspiration through 16, 18 and 21 G needles in a buffer of 50 mM Tris-HCl (pH 8.5), 10 mM MgCl2, 2 mM DTT, 5% glycerol, and further adjusted to pH 8.1 with MES. […] In a typical AcpS enzyme activity assay, 57 µM [^3H]acetyl-CoA, 2 µg apo-ACP, 10 mM MgCl2, 5 mM DTT, 50 mM Na phosphate (pH 7.0), and AcpS in a final volume of 10 µL were incubated at room temperature in a 1.5 mL microcentrifuge tube. At 5, 10, 15, and 20 min 2 µL of reaction were added to 750 µl 10% TCA on ice. Bovine serum albumin (BSA; 20 µl of a 25 mg/mL solution) was then added to facilitate precipitation of radiolabeled protein. The samples were centrifuged at 12,000 × g for 5 min. Supernatants were removed, and the pellets were rinsed twice with 750 µl of 10% trichloroacetic acid. Pellets were resuspended in 50 µl of formic acid and transferred to scintillation vials. 2 mL of scintillation fluid was added, and the amount of [^3H]-labeled holo-ACP formed was quantified by liquid scintillation counting. The enzymatic reaction proceeded in a linear manner depending on time (10–40 min) and enzyme concentration (1–5 nM). Routinely, each data point was determined at least by triplicate.\nSupplementary Figure 2. […] AcpS enzyme activity was […]\ndetermined versus using purified AcpS and increasing concentrations of CoA in the presence and absence of 8 µM DNM0547. Data are the mean values +/ - SD of three separate experiments performed in triplicate from three separate enzyme preparation. GraphPad Prism was used to determine V max and Km values."}, "MRSA (ATCC 33591)": {"tested_on": "MRSA (ATCC 33591)", "assay": "MIC, CLSI broth microdilution", "type": "cell-based, S. aureus", "details": "three individual replicates", "protocol": "The medium employed for the assay was Mueller Hinton II Broth (MHB II; Becton-Dickinson, Sparks, MD, USA). Agar plates used for the organisms were trypticase soy agar plus 5% sheep blood (BD; Sparks, MD, USA). MIC assay plates were prepared using the CLSI broth microdilution procedure. Automated liquid handlers (Multidrop 384, Biomek 2000 and Biomek FX) were used to conduct serial dilutions and liquid transfers. A standardized inoculum of each organism was prepared per CLSI methods. Suspensions were prepared to equal a 0.5 McFarland standard, followed by a 1:20 dilution in test media. The inocula were dispensed into sterile reservoirs divided by length (Beckman Colter) and the Biomek 2000 was used to inoculate the plates. Daughter plates were placed on the Biomek 2000 work surface in reverse orientation so that inoculation took place from low to high drug concentration. The Biomek 2000 delivered 10 μL of the diluted suspension into each well. These inoculations yielded a final cell concentration in the daughter plates of ~5 × 10^5 colony-forming units/mL in each well. The wells of the daughter plates ultimately contained 185 μL of broth, 5 μL of drug solution, and 10 μL of bacterial inoculum. Plates were covered with a sterile lid on the top plate, placed in plastic bags, and incubated at 35 °C for ~18 h. The microplates were viewed from the bottom using a plate viewer and the MIC was read. The MIC was recorded as the lowest concentration of drug that inhibited visible growth of the organism. Uninoculated solubility control plates were also observed for evidence of drug precipitation."}, "E. coli (D22)": {"tested_on": "E. coli (D22)", "assay": "MIC, outer-membrane-permeable lpxC point mutant", "type": "cell-based", "details": "Escherichia coli", "source_text": "The outer membrane of Gram-negative bacteria is a robust permeability barrier that prevents many antibiotics from entering Gram-negative cells[46],[47]. The outer leaflet of this outer membrane is primarily composed of the unique lipid lipopolysaccharide (LPS). Strains of E. coli with point mutations in genes coding for LPS biosynthetic enzymes have been isolated that enable some antibiotics to effectively pass through the outer membrane enabling activity against these strains of E. coli[48]–[54]; one such strain is E. coli (D22) which contains a point mutation in the lpxC gene.\nThe medium employed for the assay was Mueller Hinton II Broth (MHB II; Becton-Dickinson, Sparks, MD, USA). Agar plates used for the organisms were trypticase soy agar plus 5% sheep blood (BD; Sparks, MD, USA). MIC assay plates were prepared using the CLSI broth microdilution procedure. Automated liquid handlers (Multidrop 384, Biomek 2000 and Biomek FX) were used to conduct serial dilutions and liquid transfers. A standardized inoculum of each organism was prepared per CLSI methods. Suspensions were prepared to equal a 0.5 McFarland standard, followed by a 1:20 dilution in test media. […] The microplates were viewed from the bottom using a plate viewer and the MIC was read. The MIC was recorded as the lowest concentration of drug that inhibited visible growth of the organism. […]"}},
  "note": "Where “and” joins values, the source holds several entries; their conditions need not be identical. Identical values can stand only once.",
  "data": [
    {"smiles": "CC(C)c1cc(Cl)ccc1-c1cc(-c2nnn[nH]2)c(-c2ccc(Cl)cc2C(C)C)s1", "note": "[DNM0547]", "values": [
      {"measurement": "V(+Inhibitor) Mean", "setting": "AcpS; Acetyl CoA 0.06 mM", "result": 20.55, "unit": "nM/min"},
      {"measurement": "V(+Inhibitor)", "setting": "AcpS; Acetyl CoA 0.06 mM", "result": "19.96 nM/min and 23.46 nM/min and 18.23 nM/min"},
      {"measurement": "V(+Inhibitor) Mean", "setting": "AcpS; Acetyl CoA 0.24 mM", "result": 101.48, "unit": "nM/min"},
      {"measurement": "V(+Inhibitor)", "setting": "AcpS; Acetyl CoA 0.24 mM", "result": "97.72 nM/min and 105.12 nM/min and 101.61 nM/min"},
      {"measurement": "V(+Inhibitor) Mean", "setting": "AcpS; Acetyl CoA 0.48 mM", "result": 125.64, "unit": "nM/min"},
      {"measurement": "V(+Inhibitor)", "setting": "AcpS; Acetyl CoA 0.48 mM", "result": "122.32 nM/min and 124.81 nM/min and 129.79 nM/min"},
      {"measurement": "V(+Inhibitor) Mean", "setting": "AcpS; Acetyl CoA […]", "result": 57.60, "unit": "nM/min"},
      {"measurement": "MIC", "setting": "MRSA (ATCC 33591)", "result": 2, "unit": "µg/mL"},
      {"measurement": "MIC", "setting": "E. coli (D22)", "result": 32, "unit": "µg/mL"}
    ]}
  ]
}
